molecular target: T1, Human recombinant PAI-1 (Homo sapiens, UniProt P05121); test: Chromogenic assay for plasminogen activator inhibitor type-1 (PAI-1) antagonism (tPA / glu-plasminogen / Spectrozyme PL, OD405); format: biochemical; conditions: determined by comparison with control reactions; assay variant (#1-#4) not given; read-out: IC50 for PAI antagonist activity
T1 construct: made in house; host or cells: E. coli
Protocol: PAI-1 antagonist assays were performed in a buffer containing Tris, 0.05 mol/L, pH 7.4, 100 mmol/L NaCl, 1 mmol/L EDTA, and 0.01% Tween 80. Human recombinant PAI-1 purified from E coli. and human recombinant tPA were diluted into this standard assay buffer at concentrations of approximately 500-600 ng/mL and 100 ng/mL, respectively. PAI-1 antagonists were dissolved first in DMSO at a concentration of approximately 5 mg/mL, and these solutions were then diluted into the standard reaction buffer to achieve a final compound concentration of 1 mg/mL. Native, purified human glu-plasminogen was purchased from Boehringer Mannheim and was supplied as a lyophilized powder, which was first reconstituted in sterile water to a concentration of 55 μmol/L and then diluted to a concentration of 0.825 μmol/L in standard assay buffer. The chromogenic substrate Spectrozyme PL (H—D-Norleucyl-hexahydrotyrosyl-lysine-p-nitroanilide, American Diagnostica) was prepared as a stock solution with a concentration of 2.5 mmol/L in sterile water. Human fibrin monomer (DESAFIB) was purchased from American Diagnostica and was supplied as a lyophilized powder, which was reconstituted in standard assay buffer at a concentration of 100 μg/mL.
The chromogenic assay utilized the reagents described above. Fresh reagent solutions were prepared prior to each assay. Assays were performed in individual wells of standard 96 well mocrotiter assay plates. Standard assays were prepared as follows:
The following reagents were combined:
The plate was agitated or the individual 25 μL mixtures were pipetted up and down once or twice to assure proper mixing of reagents. The resulting mixture was incubated 15 minutes at room temperature (approximately 21° C.).
The following was added to each reaction:
The microtiter assay plate was then placed into a Molecular Devices Thermomax or Spectromax Plate Reader, agitated to assure thorough mixing of reagents, and incubated at 37° C. The OD405 of each reaction mixture is measured every minute for 1 hour. Control reactions which lack PAI-1; PAI-1 and test compound; t-PA; or t-PA, PAI-1 and test compound were performed in each assay.
Assay #2 was performed exactly as assay #1 except that a 10 minute preincubation of the test compound and PAI-1 was performed at room temperature prior to the addition of t-PA.
Assay #3 was performed exactly as assay #1 except that a wide range of concentrations of each test compound, depending upon the potency of the individual compound, was used in the assay.
Assay #4 was performed exactly as assay #2 except that a wide range of concentrations of each test compound, depending upon the potency of the individual compound, was used in the assay.
The generated plasmin cleaved the chromogenic substrate, Spectrozyme PL, producing pNA (para-nitroaniline). The pNA was detected spectrophotometrically at 405 nm.
The degree of inhibition at various concentrations and/or the IC50 value for the compounds provided herein was determined by comparison with control reactions. The IC50 for PAI antagonist activity for each of the compounds specifically disclosed herein has been measured.

T1 sequence (P05121 24-402): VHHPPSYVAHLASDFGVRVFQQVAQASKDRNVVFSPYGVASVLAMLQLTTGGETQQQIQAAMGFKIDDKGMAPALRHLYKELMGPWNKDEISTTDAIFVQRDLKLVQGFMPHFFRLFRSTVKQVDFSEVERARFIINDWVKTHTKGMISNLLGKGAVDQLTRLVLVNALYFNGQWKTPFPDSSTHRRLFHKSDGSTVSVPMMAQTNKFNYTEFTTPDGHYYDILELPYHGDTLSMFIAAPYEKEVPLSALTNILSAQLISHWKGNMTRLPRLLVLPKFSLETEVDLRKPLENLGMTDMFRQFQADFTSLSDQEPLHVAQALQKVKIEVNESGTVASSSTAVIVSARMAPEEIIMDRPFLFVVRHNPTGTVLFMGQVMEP

`O=C(O)c1cc(I)c(OCc2c(F)cccc2F)c(I)c1` [4-(2,6-difluorobenzyloxy)-3,5-diiodobenzoic acid] and `Cc1ccccc1COc1c(I)cc(C(=O)O)cc1I` [3,5-diiodo-4-(2-methylbenzyloxy)benzoic acid] cannot be ordered by IC50: < 100 µM for the first, < 50 µM for the second.

`O=C(c1ccccc1)c1cc(I)c(O)c(I)c1` [(4-hydroxy-3,5-diiodophenyl)-phenyl-methanone] and `O=C(c1cc(I)c(O)c(I)c1)c1cc(I)c(O)c(I)c1` [bis(4-hydroxy-3,5-diiodophenyl)methanone] cannot be ordered by IC50: < 100 µM for the first, < 50 µM for the second.

`O=C(O)c1cc(I)c(OCc2ccc(I)cc2)c(I)c1` [3,5-diiodo-4-(4-iodobenzyloxy)benzoic acid] and `O=C(O)CCc1cc(I)c(OCc2ccc(I)cc2)c(I)c1` [3-[3,5-diiodo-4-(4-iodobenzyloxy)phenyl]propionic acid] cannot be ordered by IC50: < 10 µM for the first, < 10 µM for the second.

`O=C(C(=O)c1cc(I)c(O)c(I)c1)c1cc(I)c(O)c(I)c1` [1,2-bis-(4-hydroxy-3,5-diiodophenyl)ethane-1,2-dione] and `O=C(O)COc1c(I)cc(C(=O)c2cc(I)c(O)c(I)c2)cc1I` [[4-(4-hydroxy-3,5-diiodobenzoyl)-2,6-diiodophenoxy]acetic acid] cannot be ordered by IC50: < 50 µM for the first, < 100 µM for the second.

`O=C(O)CCCCCCCCCCOc1c(I)cc(C(=O)O)cc1I` [4-(10-carboxydecyloxy)-3,5-diiodobenzoic acid] and `O=C(c1cc(I)c(O)c(I)c1)c1cc(I)c(OCc2cccc(I)c2)c(I)c1` [[3,5-diiodo-4-(3-iodobenzyloxy)phenyl]-(4-hydroxy-3,5-diiodophenyl)methanone] cannot be ordered by IC50: < 50 µM for the first, < 10 µM for the second.
